Results from US9777039B2, “Somatostatin analogs and dimers thereof” (Ipsen Pharma S.A.S., priority 2012, dated 2017).
Read-outs that look alike come from different tables or passages of the source. Residues, ends and D or L forms follow the SMILES beside them.

How the values were obtained:
hSSTR1 = molecular target: T1, hSSTR1 (Homo sapiens, UniProt P30872); experiment: Somatostatin receptor radioligand binding assay, hSSTR1; conditions: CHO-K1 cell membranes, [125I-Tyr11]-SRIF-14; read-out: hSSTR1 Ki (nM) ± SEM
T1 construct: expressed in transfected cells; membranes
Method: (§1) The affinities of a test compound for the human somatostatin receptors were determined by radioligand binding assays in CHO-K1 cells stably transfected with each of the somatostatin receptor subtypes, hSSTR1-5. The cDNA coding sequences of the hSSTR1 (GenBank accession No. NM_001049.1), hSSTR2 (GenBank accession No. XM_012697.1), hSSTR3 (GenBank accession No. XM_009963.1), hSSTR4 (GenBank accession No. NM_001052.1) and hSSTR5 (GenBank accession No. XM_012565.1) were subcloned into the mammalian expression vector pcDNA3.1 (Life Technologies). Clonal cell lines stably expressing each of the somatostatin receptors were obtained by transfection into CHO-K1 cells (ATCC) and subsequently selected with culture media containing 0.8 mg/mL of G418 (Life Technologies).
(§2) Membranes for in vitro receptor binding assays were obtained by the following procedures. CHO-K1 cells expressing one of the somatostatin receptors were homogenized in ice-cold buffer with 10 mM Tris-HCl, 5 mM EDTA, 3 mM EGTA, 1 mM phenylmethylsuphonyl fluoride, pH 7.6, using Polytron PT10-35GT (Kinematica) at 18,000 rpm for 30 seconds and centrifuged at 500×g for 10 minutes. The supernatant containing the plasma membranes was centrifuged at 100,000×g for 30 minutes and the pellet was resuspended in buffer containing 20 mM glycine-glycine, 1 mM MgCl2, 250 mM sucrose, pH 7.2, for storage at −80° C. […]

hSSTR4 = molecular target: T2, hSSTR4 (Homo sapiens, UniProt P31391); experiment: Somatostatin receptor radioligand binding assay, hSSTR4; conditions: CHO-K1 cell membranes, [125I-Tyr11]-SRIF-14; read-out: hSSTR4 Ki (nM) ± SEM
T2 construct: expressed in transfected cells; membranes
Method: as §1, §2

hSSTR5 = molecular target: T3, hSSTR5 (Homo sapiens, UniProt P35346); experiment: Somatostatin receptor radioligand binding assay, hSSTR5; conditions: CHO-K1 cell membranes, [125I-Tyr]-DPhe-cyclo(Cys-Tyr-DTrp-Lys-Val-Cys)-Thr-NH2; read-out: hSSTR5 Ki (nM) ± SEM
T3 construct: expressed in transfected cells; membranes
Method: as §1, §2

hSSTR2 [1] = molecular target: T4, hSSTR2 (Homo sapiens, UniProt P30874); experiment: Somatostatin receptor radioligand binding assay, hSSTR2
T4 construct: expressed in transfected cells
Method: as §1
Membranes for in vitro receptor binding assays were obtained by the following procedures. CHO-K1 cells expressing one of the somatostatin receptors were homogenized in ice-cold buffer with 10 mM Tris-HCl, 5 mM EDTA, 3 mM EGTA, 1 mM phenylmethylsuphonyl fluoride, pH 7.6, using Polytron PT10-35GT (Kinematica) at 18,000 rpm for 30 seconds and centrifuged at 500×g for 10 minutes. The supernatant containing the plasma membranes was centrifuged at 100,000×g for 30 minutes and the pellet was resuspended in buffer containing 20 mM glycine-glycine, 1 mM MgCl2, 250 mM sucrose, pH 7.2, for storage at −80° C.
For the hSSTR1, 2 and 5 assays, membranes and various concentrations of test compounds were incubated in 96-well plates for 60 minutes at 25° C. with 0.05 nM [^125I-Tyr^11]-SRIF-14 (for hSSTR1; PerkinElmer Life Science), 0.05 nM [^125I-Tyr]-seglitide (for hSSTR2; PerkinElmer Life Science) or 0.05 nM [^125I-Tyr]-DPhe-cyclo(Cys-Tyr-DTrp-Lys-Val-Cys)-Thr-NH2 (for hSSTR5; PerkinElmer Life Science) in 50 mM HEPES, 0.2% BSA, 0.1 mM MgCl2, pH 7.5.
The incubations were terminated by rapid filtration through GF/C glass microfiber filter plates (pre-wet with 0.3% polyethyleneimine and 0.1% BSA) using a 96-well cell harvester (Brandel). Plates were washed six times with 1 mL/well aliquots of ice-cold buffer containing 50 mM Tris buffer, pH 7.7. Specific binding is defined as the total radioligand bound minus the bound in the presence of 1000 nM SRIF-14.

hSSTR3 = molecular target: T5, hSSTR3 (Homo sapiens, UniProt P32745); experiment: Somatostatin receptor radioligand binding assay, hSSTR3; conditions: CHO-K1 cell membranes, [125I-Tyr11]-SRIF-14; read-out: hSSTR3 Ki (nM) ± SEM
T5 construct: expressed in transfected cells; membranes
Method: as §1, §2

hSSTR2 [2] = molecular target: T4, hSSTR2; experiment: Intracellular calcium mobilization assay (FLIPR Calcium 4 assay kit); type: cell-based; conditions: for Emax: maximal effect in percentage of the maximal effect of SRIF-14, read-out: hSSTR2 % Emax ± SEM
Method: The ability of select compounds according to the present invention to activate hSSTR2 was determined by the intracellular calcium mobilization assay using FLIPR Calcium 4 assay kit (Molecular Devices).
Cells expressing hSSTR2 were plated in 384-well microplates in tissue culture media and incubated for 16-24 hours at 37° C. in a humidified atmosphere with 5% CO2. Medium was replaced by loading buffer containing Hank's buffered saline, 20 mM HEPES, 2.5 mM probenecid and Calcium 4 dye, and the plates were incubated at 37° C. for 60 minutes. Various concentrations of the test compounds were applied to the cells during the fluorescence measurement with excitation at 485 nm and emission at 525 nm using the Flexstation III microplate reader (Molecular Devices).
The half maximal effective concentrations (EC50) were calculated by fitting data to sigmoid dose-response curves using GraphPad Prism version 5.03 (GraphPad Software, San Diego, Calif., USA). % Emax values represent the maximal effect of the test compound in percentage of the maximal effect of SRIF-14.
Reference Compound No. A, whose chemical name and corresponding structure are provided in Table V, was synthesized and its ability to activated hSSTR2 was determined by the same intracellular calcium mobilization assays using FLIPR Calcium 4 assay kit (Molecular Devices) and under the same experimental conditions for the test compounds, as described hereinabove, and the results thereof are provided in Table VI.

[3] = CHO-K1 cell membranes, [125I-Tyr]-seglitide, read-out: hSSTR2 Ki (nM) ± SEM
[4] = cells expressing hSSTR2, calcium mobilization, read-out: hSSTR2 EC50 (nM) ± SEM

T4 sequence (P30874 whole entry): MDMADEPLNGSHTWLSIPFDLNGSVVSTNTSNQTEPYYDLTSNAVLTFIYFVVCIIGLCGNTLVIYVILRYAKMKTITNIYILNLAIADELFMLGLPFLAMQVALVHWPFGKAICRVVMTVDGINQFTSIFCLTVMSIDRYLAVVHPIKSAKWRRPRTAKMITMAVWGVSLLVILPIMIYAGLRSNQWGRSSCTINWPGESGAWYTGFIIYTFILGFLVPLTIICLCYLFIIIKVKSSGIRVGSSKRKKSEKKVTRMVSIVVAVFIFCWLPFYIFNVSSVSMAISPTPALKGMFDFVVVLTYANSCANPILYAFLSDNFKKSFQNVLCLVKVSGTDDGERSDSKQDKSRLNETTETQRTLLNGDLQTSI
T3 sequence (P35346 whole entry): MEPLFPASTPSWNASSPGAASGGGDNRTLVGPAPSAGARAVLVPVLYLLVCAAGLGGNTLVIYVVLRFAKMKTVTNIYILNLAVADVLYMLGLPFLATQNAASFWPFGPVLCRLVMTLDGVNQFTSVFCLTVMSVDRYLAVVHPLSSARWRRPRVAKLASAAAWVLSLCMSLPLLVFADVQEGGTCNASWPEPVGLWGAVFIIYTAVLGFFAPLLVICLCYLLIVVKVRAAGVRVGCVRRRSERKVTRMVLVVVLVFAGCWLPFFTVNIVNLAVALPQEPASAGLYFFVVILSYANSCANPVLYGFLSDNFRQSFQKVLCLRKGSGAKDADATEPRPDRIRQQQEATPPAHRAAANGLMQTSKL
T1 sequence (P30872 whole entry): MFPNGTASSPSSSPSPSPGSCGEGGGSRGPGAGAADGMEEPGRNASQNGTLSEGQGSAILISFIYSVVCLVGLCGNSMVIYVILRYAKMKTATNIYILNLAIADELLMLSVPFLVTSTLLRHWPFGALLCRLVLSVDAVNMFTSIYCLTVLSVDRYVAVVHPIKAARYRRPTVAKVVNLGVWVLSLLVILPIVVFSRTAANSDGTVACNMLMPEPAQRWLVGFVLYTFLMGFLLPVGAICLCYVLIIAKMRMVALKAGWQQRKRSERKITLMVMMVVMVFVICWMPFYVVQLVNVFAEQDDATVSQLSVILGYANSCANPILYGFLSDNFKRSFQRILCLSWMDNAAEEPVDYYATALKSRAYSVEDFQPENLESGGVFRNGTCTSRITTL
T5 sequence (P32745 whole entry): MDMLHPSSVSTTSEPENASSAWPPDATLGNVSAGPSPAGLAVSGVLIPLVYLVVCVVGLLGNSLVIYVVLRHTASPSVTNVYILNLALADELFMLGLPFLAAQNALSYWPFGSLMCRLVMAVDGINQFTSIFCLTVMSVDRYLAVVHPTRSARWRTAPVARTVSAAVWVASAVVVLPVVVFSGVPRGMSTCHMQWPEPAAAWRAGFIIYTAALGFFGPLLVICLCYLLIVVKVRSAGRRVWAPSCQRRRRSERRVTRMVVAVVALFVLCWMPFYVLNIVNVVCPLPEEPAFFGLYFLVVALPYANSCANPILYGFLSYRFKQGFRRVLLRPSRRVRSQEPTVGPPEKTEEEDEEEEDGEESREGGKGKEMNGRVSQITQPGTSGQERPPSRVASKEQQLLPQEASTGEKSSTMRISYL
T2 sequence (P31391 whole entry): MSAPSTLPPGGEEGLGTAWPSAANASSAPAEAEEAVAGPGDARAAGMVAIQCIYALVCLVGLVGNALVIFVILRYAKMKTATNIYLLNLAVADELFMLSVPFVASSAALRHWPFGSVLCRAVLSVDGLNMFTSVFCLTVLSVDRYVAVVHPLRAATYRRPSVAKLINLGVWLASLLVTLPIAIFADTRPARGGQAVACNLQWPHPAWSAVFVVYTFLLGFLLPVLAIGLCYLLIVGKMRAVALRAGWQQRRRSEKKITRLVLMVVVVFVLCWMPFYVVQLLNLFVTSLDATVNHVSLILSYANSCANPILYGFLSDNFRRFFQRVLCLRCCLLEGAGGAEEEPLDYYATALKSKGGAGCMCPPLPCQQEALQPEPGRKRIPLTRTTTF

Row | Ki (hSSTR1) [nM] | Ki (hSSTR4) [nM] | Ki (hSSTR5) [nM] | Ki (hSSTR2 [1]; [3]) [nM] | Ki (hSSTR3) [nM] | EC50 (hSSTR2 [2]; [4]) [nM] | Structure (SMILES) | Emax (hSSTR2 [2]) [%] | Ki (hSSTR2 [1]) [nM] | EC50 (hSSTR2 [2]) [nM]
1 | > 1000 | 76.3 ± 12.6 | 0.31 ± 0.1 | 0.47 ± 0.03 | 16.3 ± 7.1 | 9.1 ± 3.9 | C[C@@H](O)[C@@H]1NC(=O)[C@H](CCCCN)NC(=O)[C@@H](Cc2c[nH]c3ccccc23)NC(=O)[C@H](Cc2ccncc2)NC(=O)[C@H](Cc2ccccc2)NC(=O)[C@H](CCCNC(=N)N)NC(=O)[C@H](N)CCCCNC(=O)[C@H](Cc2ccccc2)NC1=O [Compound 1, cyclo(DLys-Arg-Phe-4Pal-DTrp-Lys-Thr-Phe)] (HELM PEPTIDE1{[dK].R.F.[O=C([C@H](Cc1ccncc1)N[*:1])[*:2]].[dW].K.T.F}$PEPTIDE1,PEPTIDE1,1:R3-8:R2$$$V2.0) | 96.3 ± 5.5 | – | –
2 | – | – | – | – | – | – | C[C@@H](O)[C@@H]1NC(=O)[C@H](CCCCN)NC(=O)[C@@H](Cc2c[nH]c3ccccc23)NC(=O)[C@H](Cc2ccncc2)NC(=O)[C@H](Cc2ccccc2)NC(=O)[C@H](CCCNC(=N)N)NC(=O)[C@H](NC[C@H](Cc2ccc(O)cc2)NC(=O)CCc2cn(CC(=O)N[C@H](CN[C@@H]3CCCCNC(=O)[C@H](Cc4ccccc4)NC(=O)[C@H]([C@@H](C)O)NC(=O)[C@H](CCCCN)NC(=O)[C@@H](Cc4c[nH]c5ccccc45)NC(=O)[C@H](Cc4ccncc4)NC(=O)[C@H](Cc4ccccc4)NC(=O)[C@H](CCCNC(=N)N)NC3=O)Cc3ccc(O)cc3)nn2)CCCCNC(=O)[C@H](Cc2ccccc2)NC1=O [Compound 5, 1-[(ethan-2-oyl)-Tyr-psi(CH2NH)-cyclo(DLys-Arg-Phe-4Pal-DTrp-Lys-Thr-Phe)],4-[(propan-3-oyl)-Tyr-psi(CH2NH)-cyclo(DLys-Arg-Phe-4Pal-DTrp-Lys-Thr-Phe)]-1,2,3-triazole] | 88.6 ± 1.1 | 0.08 | 3.3
3 | – | – | – | – | – | – | C[C@@H](O)[C@@H]1NC(=O)[C@H](CCCCN)NC(=O)[C@@H](Cc2c[nH]c3ccccc23)NC(=O)[C@H](Cc2ccccc2)NC(=O)[C@H](Cc2ccccc2)NC(=O)[C@H](CCCNC(=N)N)NC(=O)[C@H](NC[C@H](Cc2ccc(O)cc2)NC(=O)CCc2cn(CC(=O)N[C@H](CN[C@@H]3CCCCNC(=O)[C@H](Cc4ccc(F)cc4)NC(=O)[C@H]([C@@H](C)O)NC(=O)[C@H](CCCCN)NC(=O)[C@@H](Cc4c[nH]c5ccccc45)NC(=O)[C@H](Cc4ccccc4)NC(=O)[C@H](Cc4ccccc4)NC(=O)[C@H](CCCNC(=N)N)NC3=O)Cc3ccc(O)cc3)nn2)CCCCNC(=O)[C@H](Cc2ccc(F)cc2)NC1=O [Compound 6, 1-[(ethan-2-oyl)-Tyr-psi(CH2NH)-cyclo(DLys-Arg-Phe-Phe-DTrp-Lys-Thr-4FPhe)],4-[(propan-3-oyl)-Tyr-psi(CH2NH)-cyclo(DLys-Arg-Phe-Phe-DTrp-Lys-Thr-4FPhe)]-1,2,3-triazole] | 93.6 ± 4.1 | 0.38 | 74.6 ± 15.6
4 | – | – | – | – | – | – | C[C@@H](O)[C@@H]1NC(=O)[C@H](CCCCN)NC(=O)[C@@H](Cc2c[nH]c3ccccc23)NC(=O)[C@H](Cc2ccccc2)NC(=O)[C@H](Cc2ccccc2)NC(=O)[C@H](CCCNC(=N)N)NC(=O)[C@H](NC[C@H](Cc2ccc(O)cc2)NC(=O)CCc2cn(CC(=O)N[C@H](CN[C@@H]3CCCCNC(=O)[C@H](Cc4ccc(O)cc4)NC(=O)[C@H]([C@@H](C)O)NC(=O)[C@H](CCCCN)NC(=O)[C@@H](Cc4c[nH]c5ccccc45)NC(=O)[C@H](Cc4ccccc4)NC(=O)[C@H](Cc4ccccc4)NC(=O)[C@H](CCCNC(=N)N)NC3=O)Cc3ccc(O)cc3)nn2)CCCCNC(=O)[C@H](Cc2ccc(O)cc2)NC1=O [Compound 7, 1-[(ethan-2-oyl)-Tyr-psi(CH2NH)-cyclo(DLys-Arg-Phe-Phe-DTrp-Lys-Thr-Tyr)],4-[(propan-3-oyl)-Tyr-psi(CH2NH)-cyclo(DLys-Arg-Phe-Phe-DTrp-Lys-Thr-Tyr)]-1,2,3-triazole] | 97.4 ± 1.2 | 0.17 | 28.5 ± 11.5
5 | 271 ± 160 | 112 ± 18.6 | 0.32 | 0.02 ± 0.02 | 5 | 4.4 ± 3.7 | C[C@@H](O)[C@@H]1NC(=O)[C@H](CCCCN)NC(=O)[C@@H](Cc2c[nH]c3ccccc23)NC(=O)[C@H](Cc2ccncc2)NC(=O)[C@H](Cc2ccccc2)NC(=O)[C@H](CCCNC(=N)N)NC(=O)[C@H](NC[C@@H](N)Cc2ccc(O)cc2)CCCCNC(=O)[C@H](Cc2ccccc2)NC1=O [Compound 21, Tyr-psi(CH2NH)-cyclo(DLys-Arg-Phe-4Pal-DTrp-Lys-Thr-Phe)] | 103 ± 0.2 | – | –
